What was measured:
[1] = biological target: T1, soybean lipoxygenase (SLOX-1) (Glycine max, UniProt P08170); assay: Inhibition of soybean lipoxygenase in vitro; type: biochemical; conditions: pH 9, sodium linoleate substrate; for inhibition at 100 µM: read-out: LOX% Inhibition, 100 μM (±SD)
T1 construct: 200 μL of plant-derived lipoxygenase solution (1:9 × 10^−4 w/v, in saline); purchased Sigma Chemical, Co; host or cells: soybean (plant-derived)
T1 sequence (P08170 1-839): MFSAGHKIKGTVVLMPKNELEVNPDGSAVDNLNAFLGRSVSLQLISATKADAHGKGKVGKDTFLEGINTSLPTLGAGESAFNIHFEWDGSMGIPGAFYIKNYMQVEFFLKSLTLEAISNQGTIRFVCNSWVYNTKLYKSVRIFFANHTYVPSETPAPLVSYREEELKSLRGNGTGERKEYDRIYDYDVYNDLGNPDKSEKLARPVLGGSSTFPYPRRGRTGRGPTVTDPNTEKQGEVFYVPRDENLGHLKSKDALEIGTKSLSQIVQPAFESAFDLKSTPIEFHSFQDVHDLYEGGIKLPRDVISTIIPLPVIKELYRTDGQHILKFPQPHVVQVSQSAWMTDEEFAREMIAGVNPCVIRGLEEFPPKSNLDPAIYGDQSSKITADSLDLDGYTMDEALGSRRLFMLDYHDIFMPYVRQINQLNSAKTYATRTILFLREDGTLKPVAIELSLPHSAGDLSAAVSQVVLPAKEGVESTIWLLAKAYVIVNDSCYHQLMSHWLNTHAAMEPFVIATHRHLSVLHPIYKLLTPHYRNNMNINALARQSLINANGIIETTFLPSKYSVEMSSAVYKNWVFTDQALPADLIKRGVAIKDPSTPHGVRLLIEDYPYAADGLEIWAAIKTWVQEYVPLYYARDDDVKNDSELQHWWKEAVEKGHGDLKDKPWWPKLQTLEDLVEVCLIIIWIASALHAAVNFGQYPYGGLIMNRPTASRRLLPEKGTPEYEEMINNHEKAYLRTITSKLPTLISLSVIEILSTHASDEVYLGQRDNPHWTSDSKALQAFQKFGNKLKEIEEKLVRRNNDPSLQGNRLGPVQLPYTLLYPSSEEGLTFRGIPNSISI
Procedure: Soybean lipoxygenase SLOX-1 at pH 9 is used in vitro. During this assay linoleic acid sodium salt is converted to the corresponding 13-hydroperoxide. The reaction is recorded photometrically at 234 nm using the UV-based enzyme assay. […] It is known that soybean LOX inhibitory activity induced by NSAIDs is qualitatively quite similar to the inhibition observed on the rat mast cells LOX and this assay may be used as a qualitative or semi-quantitative screen for such activity.
To a quartz cell, add 790 μL of Tris-HCl pH = 9.0 buffer, 200 μL of plant-derived lipoxygenase solution (1:9 × 10^−4 w/v, in saline), 10 μL of the test compound solution and 100 μL of sodium linoleate solution (3 mM concentration). The absorbance was measured at 234 nm, where the change in absorbance due to the conversion of linoleic acid to […] was recorded. A solution of 790 μL of Tris-HCl pH = 9.0 buffer, 200 μL of a plant-derived lipoxygenase solution (1:9 × 10^−4 w/v, in saline), 10 μL of DMSO and 100 μL of sodium linoleate solution (3 mM concentration) was used as a control.

[2] = Inhibition of AAPH-induced linoleic acid peroxidation; conditions: 37 °C, 234 nm
Procedure: The ability of the compounds to inhibit AAPH-induced peroxidation of linoleic acid is another assay to investigate the antioxidant properties of the compounds. Azo compounds such as 2,2′-azobis dihydrochloride (2-amidinopropane) (AAPH) are capable of generating free radicals through spontaneous decomposition at 37 °C. The R- radicals react immediately with air-oxygen to produce peroxy radicals. AAPH was therefore used as the radical initiator and sodium linoleate as substrate subjected to peroxidation. Measurements were carried out at 234 nm using a UV/V is spectrophotometer. Dichalcone 1i substituted with two phenyl groups presents the lowest lipophilicity. […] Therefore, hydrophilic substituents offer an increase in activity.
The interaction of free radicals with cell membrane lipids induces free radical chain reactions, a process called lipid peroxidation. 930 μL of a phosphate buffer solution (0.05 M, pH = 7.4), 10 μL of the sodium linolate solution (16 mM in a buffer solution of Tris-HCl pH = 9) and 10 μL of the tested compounds (stock solutions 100 μΜ) were mixed and the oxidative procedure started after the addition of 50 μL AAPH at 37 °C under air conditions. The conjugated diene’s absorbance was measured at 234 nm at a thermostable spectrophotometer (37 °C) according to previous publication.

[3] = Interaction with the stable free radical DPPH (reducing activity); conditions: 517 nm
Procedure: In general, the compounds present moderate to good antioxidant activity. It seems that the dibenzylacetones present satisfactory antioxidant activity compared to the hybrids at 60 min (1b, 1d and 1f).
The tested compounds (0.1 mM final concentration) dissolved in DMSO were incubated with a solution of DPPH in absolute ethanol in absence of light. The absorbance at 20 and 60 min at 517 nm was recorded at room temperature. NDGA was used as the reference compound.

[4] = Experimental lipophilicity RM by reverse phase thin layer chromatography (RP-TLC); type: physicochemical; conditions: methanol-water mobile phase
Procedure: Lipophilicity is a main physicochemical parameter for bioactive molecules, linking solubility, ligand-target binding interactions, membrane permeability absorption, distribution, bioavailability, metabolism, elimination and toxicological effects (ADMET), playing an important role in biological activity. The experimental values of lipophilicity RM were determined by reverse phase thin layer chromatography. For the experimental determination of lipophilicity the hydrophilic-lipid phase system is a mixture of methanol- water (90/10%). The theoretical lipophilicity values are determined by the Bioloom program (http://biobyte.com/bb/prod/bioloom.html, accessed on 8 April 2024) (Table 1). According to the calculated clog P values, the most lipophilic compounds are 3c, 3d and 3f while the less lipophilic ones are compounds 5a and 5b.
Melting points were determined on a MEL-Temp II (Lab. Devices, Holliston, MA, USA). In vitro tests were carried out using a UV-Vis spectra and recorded on a Perkin-Elmer 554 double-beam spectrophotometer (Perkin-Elmer Corporation Ltd., Lane Beaconsfield, Bucks, UK). Infrared spectra (KBr pellets) were recorded with Perkin-Elmer 597 spectrophotometer (Perkin-Elmer Corporation Ltd., Lane Beaconsfield, Bucks, UK). The ^1H […] Magnetic Resonance (^1H-NMR) spectra were acquired on an Agilent 500/54 (DD2) at 500 MHz in CDCl3 using tetramethylsilane as an internal standard. Agilent 500/54 (DD2) ^13C NMR spectra were acquired at 125 MHz in CDCl3 solutions with tetramethylsilane serving as an internal reference. Coupling constants J are expressed in Hz, and chemical shifts are reported in ppm. Thermo Fisher Scientific Inc., Waltham, MA, USA, used MeOH as the solvent to calculate mass spectra using an LC-PDA-MS Thermo Finnigan system (LC Pump Plus, Autosampler, Surveyor PDA Plus Detector) interfaced with an ESI MSQ Plus (Thermo Finnigan). Thin-layer chromatography using 5554 F254 Silica gel/TLC cards (Merck and Fluka Chemie GmbH Buchs, Steinheim, Switzerland) was used to monitor the reaction progress. Silica gel 60 F254 plates with a diameter of 2 mm were utilized for preparative thin layer chromatography (prep TLC) by Merck KgaA (ICH078057). Merck (20 × 20 cm) plates were used for the experimental assessment of the lipophilicity using reverse phase thin-layer chromatography (RP-TLC) TLC-Silica gel 60 F254 DC Kieselgel.
In this experiment, TLC silica gel 60 F254 1.05715.0001 commercial glass plates from Merck were used. The plates were first immersed in a 5% v/v solution of liquid paraffin in petroleum ether and left for 90 s to become completely impregnated with the stable lipophilic phase. They were then activated by standing for 30 min in an oven at 40 °C and kept there until the time of use. A 70% v/v MeOH/H2O mixture was used as the mobile phase. The mobile phase was saturated with a few drops of liquid paraffin before being used. The spots of the compounds were placed on the plate at a distance of 2 cm from the edges of the plate and also from each other. The development of the spots on the plates was carried out in closed chromatography chambers where the atmosphere is saturated with the mobile phase at room temperature. At the end of development, the solvent-formed front was marked and the plates are dried at 80 °C for about 20–30 min. The appearance of the spots was made under an ultraviolet light lamp. The Rf values were the average of 5–6 measurements for each compound and assuming that the compounds will have been rotated to different positions on the plates. The RM values were calculated from the corresponding Rf values according to the equation [67].RM = log [(1/Rf) − 1](1)

| Compound | IC50 ([1]; read-out: LOX IC50 (μM) (±SD)) [µM] | AAPH% Inhibition, 100 μM (±SD) [2] [%] | RA%, 100 μM, 20 min (±SD) [3] [%] | RA%, 100 μM, 60 min (±SD) [3] [%] | RM ± SD [4] | inhibition at 100 µM [1] [%] |
| --- | --- | --- | --- | --- | --- | --- |
| O=C(/C=C/c1ccccc1)/C=C/c1ccccc1 [Compound 1a, (1E,4E)-1,5-diphenyl-1,4-pentadien-3-one] | 10 | 69 ± 0.3 | 5 ± 0.5 | 10 ± 0.5 | 0.10 ± 0.003 |  |
| O=C(/C=C/c1ccc(F)cc1)/C=C/c1ccc(F)cc1 [Compound 1b, (1E,4E)-1,5-bis(4-fluorophenyl)-1,4-pentadien-3-one] |  | 37 ± 0.1 | 13 ± 0.6 | 100 ± 1.1 | 0.19 ± 0.001 | 30 ± 0.1 |
| O=C(/C=C/c1ccc(Br)cc1)/C=C/c1ccc(Br)cc1 [Compound 1c, (1E,4E)-1,5-bis(4-bromophenyl)-1,4-pentadien-3-oneone] |  | 61 ± 0.5 |  | 44 ± 1.6 | 0.65 ± 0.034 | 28 ± 0.6 |
| O=C(/C=C/c1ccc(Cl)cc1)/C=C/c1ccc(Cl)cc1 [Compound 1d, (1E,4E)-1,5-bis(4-chlorophenyl)-1,4-pentadien-3-one] |  | 53 ± 0.6 | 86 ± 4.5 | 95 ± 4.8 | 0.50 ± 0.042 | 38 ± 0.7 |
| Brc1ccc(/C=C/C2=NN(c3ccccc3)C(c3ccc(Br)cc3)C2)cc1 (stereo not shown) [Compound 2c] |  | 68 ± 0.6 | 21 ± 0.6 |  | 2.1 ± 0.17 |  |
| N#Cc1ccc(N2N=C(/C=C/c3ccccc3)CC2c2ccccc2)cc1 (stereo not shown) [Compound 4a, (E)-4-(5-phenyl-3-styryl-4,5-dihydro-1H-pyrazo-1-yl)-benzonitrile] |  | 98 ± 0.4 |  |  | −0.31 ± 0.023 | 39 ± 0.4 |
| N#Cc1ccc(N2N=C(/C=C/c3ccc(F)cc3)CC2c2ccc(F)cc2)cc1 (stereo not shown) [Compound 4b, (E)-4-(5-(4-fluorophenyl)-3-(4-fluorostyryl)-4,5-dihydro-1H-pyrazo-1-yl)-benzonitrile] |  | 97 ± 0.6 | 2 ± 0.1 |  | 0.61 ± 0.053 |  |
| N#Cc1ccc(N2N=C(/C=C/c3ccc(C(F)(F)F)cc3)CC2c2ccc(C(F)(F)F)cc2)cc1 (stereo not shown) [Compound 4f, (E)-4-(5-(4-(trifluoromethyl)phenyl)-3-(4-(trifluoromethyl)styryl)-4,5-dihydro-1H-pyrazol-1-yl)-benzonitrile] |  | 12 ± 1.1 |  |  | 0.8 ± 0.031 | 22 ± 1.8 |
| NC(=O)N1N=C(/C=C/c2ccccc2)CC1c1ccccc1 (stereo not shown) [Compound 5a, (E)-5-phenyl-3-styryl-4,5-dihydro-1H-pyrazole-1-carboxamide] |  | 29 ± 2.2 |  |  | 0.06 ± 0.005 | 4 ± 0.3 |
| NC(=O)N1N=C(/C=C/c2ccc(Br)cc2)CC1c1ccc(Br)cc1 (stereo not shown) [Compound 5c, (E)-5-(4-bromophenyl)-3-(4-bromostyryl)-4,5-dihydro-1H-pyrazole-1-carboxamide] |  | 85 ± 0.6 |  |  | 0.60 ± 0.055 | 37 ± 0.6 |
| CC(=O)N1N=C(/C=C/c2ccc(F)cc2)CC1c1ccc(F)cc1 (stereo not shown) [Compound 6b, (E)-5-(4-fluorophenyl)-3-(4-fluorostyryl)-4,5-dihydro-1-H-pyrazol-1-ethan-1-one] |  | 46 ± 0.6 |  |  | 0.24 ± 0.021 | 26 ± 0.3 |
| CC(=O)N1N=C(/C=C/c2ccc(Br)cc2)CC1c1ccc(Br)cc1 (stereo not shown) [Compound 6c, (E)-5-(4-bromophenyl)-3-(4-bromostyrene)-4,5-dihydro-1-H-pyrazol-1-ethan-1-one] |  | 71 ± 0.4 |  |  | 0.78 ± 0.051 | 1 ± 0.07 |
| CC(Cc1ccc(O)c(O)c1)C(C)Cc1ccc(O)c(O)c1 (stereo not shown) [NDGA, Nordihydroguaretic acid, reference compound] |  |  | 87 | 93 |  |  |
| Cc1c(C)c2c(c(C)c1O)CCC(C)(C(=O)O)O2 (stereo not shown) [Trolox, 6-Hydroxy-2,5,7,8-tetramethyl-chroman2-carboxylic acid, reference compound] |  | 92 |  |  |  |  |

— paper PMC12113707, “Microwave Assisted Synthesis of Antioxidant Dihydro-Pyrazole Hybrids as Possible Lipoxygenase Inhibitors” (Molecules, 2025)
